Laboratory results: patent US8795964B2, “GRM3 mutations and use thereof for the diagnosis and treatment of melanoma” (The United States of America, as represented by the …, priority 2010, dated 2014)

Assays:
Format in all cases: cell-based, human
[1] = system: 63T-Glu573Lys melanoma cells; assay: Growth inhibition by AZD-6244 of mutant GRM3 cells (63T) transduced with empty vector or WT GRM3; settings: 63T cells, 72 hours treatment, CellTiterGlo
Method: FIGS. 12A-12C: Expression of WT GRM3 in a mutant GRM3 background desensitizes cells to AZD-6244 inhibition. (FIG. 12A) Cell lysates from 63T cells transduced with empty vector or WT GRM3 were analyzed by western blotting using anti-FLAG-HRP and anti-GAPDH as a loading control. (FIG. 12B) Melanoma cells harboring WT (13T) or mutant GRM3 (63T-Glu573Lys) transduced with empty vector or WT GRM3 were tested for growth inhibition by AZD-6244. Cells were plated and treated with AZD-6244 concentrations ranging from 2 nM to 30 μM for 72 hours prior to analysis using CellTiterGlo and GraphPad Prism5. EC50 dose-response curves were generated from GraphPad using four-parameter nonlinear regression. (FIG. 12C) EC50 values for inhibition of cell growth by 72 h treatment with AZD-6244 of the indicated melanoma cell lines.
To test AZD-6244 inhibition of cells that had been stimulated with DCG-IV to activate MEK1/2, melanoma cells were plated in 96-well plates at 2,000 cells per well in either RPMI-1640/0.5% FBS/2.5 μM DCG-IV or RPMI-1640/10% FBS and incubated for 24 hours prior to addition of inhibitor at concentrations from 2 nM to 30 μM. Once the inhibitor was added, cells were incubated for 72 hours at 37° C. Plates were then analyzed as described above. […]

MEK = assay: Immunoblot of Erk1/2 phosphorylation in melanoma cell lines treated with AZD-6244; settings: 1 hour treatment
Method: (§1) FIGS. 5A-5E: Melanoma lines expressing GRM3 mutants show increased sensitivity to inhibition of MEK by AZD-6244. (FIG. 5A) Immunoblot analysis of representative melanoma cell lines harboring either WT or mutant GRM3. The cells were treated with the indicated concentration of AZD-6244 and analyzed for Erk1/2 expression and phosphorylation. Cells were treated for 1 hour with AZD-6244 or vehicle alone as control. Lysates were subjected to protein blot analysis with α-Eek, anti-P-Erk1/2 (α-P-Erk1/2) and anti-GAPDH as a loading control. (FIG. 5B) Representative dose-response curves showing efficacy of AZD-6244 against GRM3 mutant lines compared to WT GRM3 lines. Relative cell number after cells were treated for 72 hours with increasing concentrations (0.01-30 μM) of AZD-6244, as estimated by CellTiterGlo and plotted as percent survival, as compared to vehicle-treated control, versus log AZD-6244 concentration in nM (where 1 is 10 nM AZD-6244). […] (FIG. 5D) fluorescence activated cells sorting (FACS) analysis of WT (2T) and A190V mutant (17T) cells showing cell cycle distribution (propidium iodide (PI) staining, x axis) versus cell counts (y axis). […] (FIG. 5D) Quantification of FACS-sorted AZD-6244-treated cells. The percentage of apoptotic cells was determined based on the sub-G1 population for vehicle-treated cells or 1 AZD-6244 treated cells. […]

PARP cleavage = assay: Immunoblot of PARP cleavage after AZD-6244 treatment; settings: lysates from FACS analyzed cells
[2] = system: melanoma cells harboring WT or mutant GRM3; assay: Flow cytometry (FACS) cell cycle analysis, sub-G1 population; settings: AZD-6244 2 μM for 72 hours, PI staining
Method: as §1, with “lines.” for “lines. Relative cell number after cells were treated for 72 hours with increasing concentrations (0.01-30 μM) of AZD-6244, as estimated by CellTiterGlo and plotted as percent survival, as compared to vehicle-treated control, versus log AZD-6244 concentration in nM (where 1 is 10 nM AZD-6244).”
Melanoma cells were seeded into T25 flasks at a density of 3×10^5 cells per flask in normal complete T2 medium and incubated at 37° C. for 24 hours prior to addition of AZD-6244 (cat #S1008) (Selleck Chemicals LLC-Houston, Tex.). […] Cellular DNA content was analyzed on Becton Dickinson FACSCalibur™ using CellQuest software. […]

[3] = system: Mel-STR pooled GRM3 clones; assay: Migration assay (Boyden chamber), Mel-STR pooled GRM3 clones with or without DCG-IV; settings: 2.5 μM DCG-IV, serum-free medium in top chamber
Method: (§2) FIGS. 3A-3C: GRM3 mutations increase cell migration in vitro and in vivo. (FIG. 3A) A375 pooled GRM3 clones in the absence of stimulus (i) migrate as well as those stimulated with the group II metabotropic agonist DCG-IV (ii). A375 clones were seeded in Boyden chambers in either the absence of stimulus (i) or in the presence of 2.5 μM DCG-IV (ii) and assessed for their ability to migrate 16 hours later. (FIG. 3B) Mel-STR pooled GRM3 clones were analyzed for migration as described in (FIG. 3A). Stained wells were analyzed using a Zeiss microscope 10× lens and counted with NIH ImageJ software. (FIG. 3C) non-obese diabetic (NOD)/severe combined immunodeficiency (SCID) mice were intravenously injected with A375 pooled GRM3 clones expressing WT, G561E, S610L, E767K, or E870K GRM3, or vector alone, and examined after nine weeks. (i) Graph indicates the number of mice that had lung macrometastases. (ii) Representative images of lungs from mice injected with vector, WT or mutant expressing A375 clones.
(§3) Mel-STR pooled clones were seeded into pre-conditioned migration wells (8.0 μm—BD Biocoat, BD Biosciences) at 30,000 cells per well in serum-free medium or serum-free medium plus 2.5 μM DCG-IV in the top chamber. […] Inserts were analyzed and the number of cells migrated per field view was quantitated using ImageJ (NIH software). […]

A375 pooled GRM3 clones = assay: Migration assay (Boyden chamber), A375 pooled GRM3 clones with or without DCG-IV; settings: 2.5 μM DCG-IV, serum-free medium in top chamber
Method: as §2, §3

| Compound | resistance of cells overexpressing WT GRM3 in a mutant GRM3 background compared to control infected cells (cell proliferation) [1] | relative degree of MEK inhibition, mutant versus WT GRM3 cells (MEK) | inhibition of MEK as measured by phosphorylated ERK (p-ERK) levels (MEK; mutant as well as WT GRM3 melanoma cells) | cleaved PARP in mutant GRM3 lines compared to WT cells (PARP cleavage) | subG1 population (apoptotic cells) in mutant GRM3 cells compared to WT cells [2] | migration of vector and WT GRM3 expressing cells upon stimulation [3] | migration of vector and WT GRM3 expressing cells upon stimulation (A375 pooled GRM3 clones) |
| --- | --- | --- | --- | --- | --- | --- | --- |
| Cn1cnc2c(F)c(Nc3ccc(Br)cc3Cl)c(C(=O)NOCCO)cc21 [AZD-6244] | four-fold increased resistance | greater for the mutant cells than for the WT cells | inhibited MEK | increased levels of cleaved PARP | significant increase | – | – |
| N[C@H](C(=O)O)C1[C@@H](C(=O)O)[C@@H]1C(=O)O (stereo partly shown) [DCG-IV] | – | – | – | – | – | migrated to a similar extent as mutant GRM3 expressing cells in the absence of stimuli | migrated to a similar extent as mutant GRM3 expressing cells in the absence of stimuli |
